According to patent US20130274235A1, “TREATMENT OF MOTOR NEURON DISEASE” (THE GENERAL HOSPITAL CORPORATION, priority 2010, published 2013):
Where “and” joins values, the source holds several entries; their conditions need not be identical. Equal entries are not always repeated. Entries after “also recorded” stand apart in the source; their conditions may differ. Structures can show the parent of a compound that is named as a salt. Where two headings read alike, the source gives them in different places.

Columns and labels:
[1] = system: motor neurons in primary spinal cord cultures; assay: Low-level progressive glutamate excitotoxicity in primary spinal cord cultures; assay type: cell-based, mice; details: drug pretreatment, glutamate/PDC treatments 48 hours apart, FIG. 8
Procedure: Primary spinal cord cultures from E12 pregnant mice were pre-treated for 72 hours with 1 μM, 2.5 μM, 5 μM, or 10 μM of a selected drug according to prior optimized dosing regimen. Drugs tested were identified during screening of qPCR. Subsequently, experimental cultures were grown in the presence of 0, 1.0 μM, 2.5 μM, or 10 μM drug for 24 hours prior to exposure to two glutamate (20 μM)/PDC (1 μM) or glutamate (50 μM)/PDC (10 μM) treatments 48 hours apart. Control samples (no glutamate/PDC treatment) were cultured for 24 hours in the presence of 10 μM drug administered 3 times to determine toxicity of treatment. All cultures were then fixed and stained with ChAT, Hoechst stain of the nuclei, and Islet1/2 antibody labels for the motorneuron columns. Results were analyzed using an In Cell Analyzer (GE Healthcare). Results were presented as percent of vehicle (DMSO) treated control cells.

IGF-II mRNA = assay: IGF-II expression assay, qPCR detection, in primary spinal cord cultures; assay type: cell-based, mice
Procedure: Quantitative PCR utilizing SYBR green I (Molecular Probes, Eugene, Oreg.) or specific Taqman probes was used to confirm differential gene expression. RNA extracted from 100-200 LCMed motor neurons were reverse transcribed using Superscript III (Invitrogen). 2 μl of diluted cDNA was amplified (DNA Engine Opticon real-time PCR machine, Bio-Rad), in […] reactions containing 900 nM primer and 250 nM probe in Taqman Universal Master Mix (Applied Biosystems). Reactions were run in duplicate and each gene analyzed in at least three different animals. Reaction parameters were as follows: 50° C. for 2 min, 95° C. for 10 min, and 40 cycles of 95° C. for 15 s and 60° C. for 1 min. Controls lacking template and/or Superscript were included. The absolute copy number for each gene was quantified using a standard curve from human GAPDH plasmid and amplified products were normalized against rat GAPDH expression. Primers and probes (Integrated DNA technologies) were as follows: rat GAPDH: Forward primer: […]
Two libraries of FDA-approved drugs (NINDS and Harvard LDDN) were screened for their ability to up-regulate IGF-II expression. Candidate compounds were screened in an IGF-II expression assay using a qPCR detection methodology in primary spinal cord cultures or using a luciferase reporter assay. In the initial screening, therapeutic candidates were identified as those that increased IGF-II expression by at least 2-fold. […]

IGF-II protein = IGF-II protein expression in primary spinal cord cultures, quantitated by ELISA; assay type: cell-based, mice
Description: Further results of the library screening identified the following therapeutic agents as having a significant inducing effect on IGF-II expression in primary spinal cord cultures and are useful for treating motor neuron disease. Protein expression was quantitated by ELISA.

IGF-II P4 promoter [2] = assay: Luciferase reporter assay, P4 IGF-II promoter cell line (SK-N-FI cells); assay type: cell-based; details: FIG. 9, HCl
Procedure: pGL4.17[luc/Neo] reporter constructs were transfected to contain the P4 IGF-II promoter using the Blue Heron Bio GeneMaker. After transfection of reporter constructs into SK-N-FI cells+IGF-II using G418 selection pressure for generation of stable cell-line, clonal expansion, IGF-II up-regulating drugs such as glucocorticoids were added, and luminescence was measured. The cell lines were optimized for luciferase intensity, background, and responsiveness. The transfected cells were then used to screen the drug libraries described above
The P4 promoter cell line was cultured as described above. Eight drugs that were positive in the small library screen were tested as described above, and luciferase luminescence was measured. Of the eight tested drugs, four acted on the P4 IGF-II promoter. The best-performing non-glucocorticoid candidate that was tested was Vardenafil HCl. […] Vardenafil HCl is a phosphodiesterase type 5 (PDE5) inhibitor with a structure as shown in FIG. 11 and is known to increase cellular cGMP. Vardenafil has been previously FDA approved for treatment of erectile dysfunction and is also clinically used for treating pulmonary hypertension, and is in preclinical studies as a treatment of cystic fibrosis.

IGF-II P4 promoter [3] = details: cited from earlier work
[4] = system: spinal motor neurons in primary culture; assay: Neuroprotection against glutamate-induced toxicity in primary spinal cord cultures; assay type: cell-based, rat; details: 10-100 ng/ml, 2-4 h pretreatment; 20 μM glutamate + 100 μM PDC
Procedure: Time-pregnant Sprague Dawley wild-type rats were anesthetized, decapitated and E15.5 embryos collected, decapitated and spinal cords isolated in Hanks balanced salt solution (HBSS, Invitrogen). Dissections of spinal cords were done carefully to avoid the inclusion of somites or other external tissues. Cells were dissociated by gentle trituration and incubation with papain (Worthington Biochemical Corporation). Cells were cultured for 6 days in Neurobasal media (Invitrogen) containing 10% fetal bovine serum (FBS, Fisher scientific), 1×B27 supplement (Invitrogen), 500 μM glutamine (Invitrogen), […] mercaptoethanol (Invitrogen), Penicillin-Streptomycin (Invitrogen) or in DMEM/F12 (Invitrogen) containing 5% FBS, 1×N2 supplement A (Stem Cell Technologies), glucose (0.36%, Sigma), bovine serum albumin (0.25%, Invitrogen), Penicillin-Streptomycin (Invitrogen). Either culture media could maintain spinal cord cultures containing motor neurons. […]
For immunofluorescent staining, coverslips/sections were rinsed with phosphate buffered saline and incubated with blocking buffer (see above) for 1 h. […] The effect of glutamate, IGF-II and/or guanine deaminase on motor neuron survival was carefully evaluated, as was the co-localization of motor neuron markers.

For `N=C(N)N/N=C/c1c(Cl)cccc1Cl` [Guanabenz acetate], the “protection of motor neurons against glutamate/PDC excitotoxic insult” value [1] was “provided a level of protection”, the “Fold Increase in IGF-II mRNA Expression” value (IGF-II mRNA) was 3.8 fold and the “induction of IGF-II expression (in words)” value (IGF-II mRNA; antihypertensive agents, FIGS. 5 and 6) was “most active”.
For `CCCc1nc(C)c2c(=O)[nH]c(-c3cc(S(=O)(=O)N4CCN(CC)CC4)ccc3OCC)nn12` [Vardenafil HCl], the “protection of motor neurons against glutamate/PDC excitotoxic insult” value ([1]; HCl) was “provided a level of protection; also recorded: rescues primary motor neurons from low-level progressive glutamate toxicity”, the “Fold Increase in IGF-II mRNA Expression” value (IGF-II mRNA; HCl) was 6.5 fold and 6.5 ± 0.2 fold and the “Fold Increase in IGF-II Protein Expression” value (IGF-II protein) was 1.6 fold. The “IGF-II Protein Expression (pg/ml in media)” value (IGF-II protein; in media) was “(245 ± 27) pg/ml” and the “luciferase luminescence, activation of P4 IGF-II promoter” value (IGF-II P4 promoter [2]) was “roughly equal to those of Hydrocortisone at three concentrations; also recorded: activation, as shown in FIG. 9, at a level similar to the known P4 activator hydrocortisone”.
In the case of `C[C@]12CCC(=O)C=C1CC[C@@H]1[C@@H]2[C@@H](O)C[C@@]2(C)[C@H]1CC[C@]2(O)C(=O)CO` [hydrocortisone], the “P4 IGF-II promoter activation (known)” value (IGF-II P4 promoter [3]) is listed as “known P4 activator”.
For “IGF-II: recombinant IGF-II (R&D Systems), added exogenously to primary spinal cord cultures”, the “protection of motor neurons from glutamate-induced toxicity” value [4] was “blocked glutamate-induced motor neuron loss completely; also recorded: protected motor neurons against the toxicity; also recorded: protected motor neurons from glutamate-induced toxicity”.
